Source: a compilation of properties of binary mixtures (doi:10.1016/j.jct.2011.12.003)

Assay: xn = mol fraction of the nth substance listed
Settings: 101 kPa

CCCCCCCC[n+]1ccc2ccccc2c1.O=S(=O)([N-]S(=O)(=O)C(F)(F)F)C(F)(F)F + CCCCCCO
viscosity [mPa·s]
Settings	x2 = 0	x2 = 0.0854	x2 = 0.2857	x2 = 0.3673	x2 = 0.4981	x2 = 0.5825	x2 = 0.6854	x2 = 0.7913
298.15 K	369	287.4	136.9	95.1	58.56	42.65	28.18	17.78
308.15 K	191	153.3	78.6	56.09	35.72	26.62	18.08	11.64
318.15 K	108.7	89.2	–	35.66	23.49	17.79	12.37	8.11
328.15 K	67.9	56.19	32.57	24.14	16.33	12.59	8.87	5.88
338.15 K	44.8	37.54	22.77	17.2	11.88	9.24	–	4.44

CCCCCCCC[n+]1ccc2ccccc2c1.O=S(=O)([N-]S(=O)(=O)C(F)(F)F)C(F)(F)F + OCCc1ccccc1
viscosity [mPa·s]
Settings	x2 = 0	x2 = 0.0851	x2 = 0.1985	x2 = 0.3101	x2 = 0.3748	x2 = 0.4969	x2 = 0.5766	x2 = 0.695	x2 = 0.8076	x2 = 0.8956
298.15 K	369	305	219	153.5	126.8	79.7	–	40.23	26.6	–
308.15 K	191	161.9	119.7	86.7	72.7	47.31	36.67	–	16.96	12.09
318.15 K	108.7	93.8	–	53.23	–	30.33	–	16.64	11.53	8.35
328.15 K	67.9	–	45.88	35.03	–	20.59	–	–	8.23	5.99
338.15 K	44.8	–	31.17	24.37	–	14.79	12.01	–	6.09	4.45

OCCc1ccccc1 + CCCCCCCC[n+]1ccc2ccccc2c1.O=S(=O)([N-]S(=O)(=O)C(F)(F)F)C(F)(F)F
x1 = 1
Settings	viscosity [mPa·s]
298.15 K	10.9
308.15 K	7.19
318.15 K	4.98
328.15 K	3.64
338.15 K	2.77

CCCCCCCC[n+]1ccc2ccccc2c1.O=S(=O)([N-]S(=O)(=O)C(F)(F)F)C(F)(F)F + CCCCO
viscosity [mPa·s]
Settings	x2 = 0	x2 = 0.0865	x2 = 0.1708	x2 = 0.3134	x2 = 0.4036	x2 = 0.5032	x2 = 0.6067	x2 = 0.6915	x2 = 0.7937	x2 = 0.9314
298.15 K	369	276	205	–	84.3	–	33.87	22.84	12.59	6.1
308.15 K	191	151.2	115.2	–	51.64	34.34	21.89	–	8.77	4.39
318.15 K	108.7	89.2	69.5	44.66	32.98	22.81	15.04	10.61	–	3.32
328.15 K	67.9	56.1	–	29.85	22.59	16.01	10.88	7.77	4.72	2.58
338.15 K	44.88	37.87	31.27	–	16.68	11.78	8.15	–	–	2.06

CCCCCCO + CCCCCCCC[n+]1ccc2ccccc2c1.O=S(=O)([N-]S(=O)(=O)C(F)(F)F)C(F)(F)F
x1 = 1
Settings	viscosity [mPa·s]
298.15 K	4.48
308.15 K	3.34
318.15 K	2.54
338.15 K	1.56

CCCCO + CCCCCCCC[n+]1ccc2ccccc2c1.O=S(=O)([N-]S(=O)(=O)C(F)(F)F)C(F)(F)F
x1 = 1
Settings	viscosity [mPa·s]
298.15 K	2.54
308.15 K	1.98
318.15 K	1.57
328.15 K	1.26
338.15 K	1.03
